PubChem BioAssay (NCI)
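Results reflect a 48-hour exposure of cells in 96-well plates to compound at five concentrations. The concentration for 50% growth inhibition is given as GI50. Definition used: TGI = concentration required for complete inhibition of growth.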

Key:
Assay in all cases: inhibition of tumour cell growth, NCI panel, 48 h
[1] = test system: A549 NSCLC
[2] = test system: HCT-116 colon
[3] = test system: HCC-2998 colon
[4] = test system: RPMI-8226 leukemia
[5] = test system: OVCAR-3 ovarian
[6] = test system: ACHN renal
[7] = test system: SF-268 CNS
[8] = test system: A498 renal
[9] = test system: CCRF-CEM leukemia
[10] = test system: SK-MEL-5 melanoma

SMILES	GI50 [1] [µM]	TGI [1] [µM]	GI50 [2] [µM]	TGI [2] [µM]	GI50 [3] [µM]	TGI [3] [µM]	GI50 [4] [µM]	TGI [4] [µM]	GI50 [5] [µM]	TGI [5] [µM]	GI50 [6] [µM]	TGI [6] [µM]	GI50 [7] [µM]	TGI [7] [µM]	GI50 [8] [µM]	TGI [8] [µM]	GI50 [9] [µM]	TGI [9] [µM]	GI50 [10] [µM]	TGI [10] [µM]
NC1=NC(c2ccc(Cl)cc2)C2=C(N1)/C(=C/c1ccc(Cl)cc1)CCC2 (stereo unspecified)	7.79	35	1.67	3.22	2.11	4.27	2.36	6.15	5.76	15.4	18	> 66.2	7.35	> 38.9	2.67	12.6	5.95	> 81.5	5.51	12.9
COc1ccc2c(c1)C(=O)/C(=C/c1ncc([N+](=O)[O-])n1C)O2	2.18	6.28	0.176	0.48	1.54	4.59	0.416	2.06	1.3	5.11	0.204	0.596	0.421	2.1	1.42	2.98	0.141	0.622	0.207	0.552
CC(=O)OC1CC2(O)C3CCC4CC(O)CCC4(C)C3CCC2(C)C1C1=CC(=O)OC1 (stereo unspecified)	–	0.0323	–	0.186	–	0.39	–	0.445	–	0.172	–	0.147	–	0.15	–	0.392	–	1.69	–	0.116
C=C(c1ccc(C(=O)N(C)c2ccccc2N)cc1)C(C)N1C(=O)[C@H]2CCCN2C(=O)c2ccccc21 (stereo partly specified)	68.8	> 100	19.8	> 100	23.6	> 100	7.52	37.7	82	> 100	36.5	> 100	25	> 100	19.2	67.5	27.4	> 100	31.2	> 100
C=CC1CC12C(=O)C1OC2(C)C2C(=O)c3c(O)ccc(O)c3C(=O)C12 (stereo unspecified)	8.5	27.2	4.66	9.03	13.8	30.1	0.423	–	1.13	3.83	1.77	4.37	2.8	9.58	3.89	13.4	1.3	16	1.86	4.97
N#CC1=C(N)NC(=O)NC12Nc1ccccc1S2 (stereo unspecified)	4.27	> 40.4	18.5	44	35.5	> 100	> 37	> 55.7	26.8	> 59.9	32.2	> 100	23.6	70.8	16.5	36.8	> 42	> 67.6	17.5	33.2
COc1cc(-c2nc3sc4c(c3c(=O)[nH]2)CCCCCC4)cc(OC)c1OC	1.95	> 33.2	1.21	5.72	2.41	> 33.2	1.19	12.6	0.922	8.94	1.79	> 33.2	2.97	> 33.2	0.694	3.17	1.28	> 33.2	0.853	2.96
C/C(=N\N=C(/[Se])N1CC2CCC(CC2)C1)c1ccccn1	–	3.03	–	0.878	–	1.5	–	0.22	–	1.61	–	1.78	–	5.43	–	1.31	–	0.808	–	0.433
COc1cc(/C=C2\CN(C)C/C(=C\c3cc(CN4CCCCC4)c(O)c(OC)c3)C2=O)cc(CN2CCCCC2)c1O	3.76	16.1	2.5	8	2.61	12	3.04	9.32	3	10.4	3.95	13.9	3.97	17.4	10.1	22.7	2.77	7.52	13	26.1
COc1cc(/C=C2\CCC(CN(C)C)C2=O)ccc1OC(=O)c1ccccc1 (stereo unspecified)	–	51.5	–	22.1	–	30.1	–	9.3	–	21.3	–	28.7	–	27.5	–	33.1	–	9.77	–	29.3
O=C(O)c1cc(N=Cc2ccccc2O)cc(C(=O)O)c1	–	> 100	–	> 100	–	> 100	–	> 100	–	> 100	–	> 100	–	> 100	–	> 100	–	> 100	–	> 100
CN(C)C(=O)c1cc2cnc(Nc3ccc(-c4csc5c(=O)cc(N6CCOCC6)oc45)cc3)nc2n1C1CCCC1	0.213	> 100	0.169	0.815	0.219	1.2	0.142	0.533	0.228	–	0.187	1.25	0.222	–	0.0547	0.244	0.205	18.3	0.146	0.423
COc1cccc2c1C(=O)c1c(O)c3c(c(O)c1C2=O)C[C@@](O)(C(=O)CO)C[C@@H]3OC1C[C@H](N)[C@H](O)[C@H](C)O1 (stereo partly specified)	0.0355	> 50	0.036	0.212	0.0678	0.34	0.0909	1.28	0.167	–	0.0257	0.242	0.0616	0.982	0.0482	0.146	0.0186	0.428	0.0368	0.104
COc1ccc2c(c1)C(c1ccccc1Cl)=Nc1c(n[nH]c1C)N2	12.5	> 25	11.2	> 25	> 25	> 25	> 25	> 25	> 25	> 25	> 20.5	> 25	12.5	> 25	1.88	> 25	> 25	> 25	> 25	> 25
